In one assay the target is gp120LAI/CD4-IgG2 (Human immunodeficiency virus type 1 group M subtype B, UniProt P03377). The settings on record: peptide 1 μg/ml on streptavidin plate. Here is the method:
Streptavidin-coated ELISA plates (Pierce, Rockford, Ill.) were blocked with D-PBS/5% BSA for 2 hours at room temperature then washed three times with assay buffer (D-PBS/0.5% Tween 20/1% Fetal Bovine Serum/2% BSA). Plates were then contacted with sulfo- or phospho-peptides (1 μg/ml) for 1 hour at room temperature and washed three times with assay buffer. Mixtures of CD4-IgG2 (50 nM) and purified gp120 or gp120-containing supernatants in a 1:4 molar ratio were added to the plates for 1 hour at room temperature. Plates were washed three times and (HRP)-conjugated goat anti-human IgG was used to detect the presence of bound CD4-IgG2. The plates were developed using the TMB substrate as described above. Gp120/CD4-IgG2 binding to the peptides was normalized for CD4-IgG2binding to the mutant gp120 proteins.

A further assay relates to PA10. Nature of the assay: ELISA: direct binding of anti-CCR5 MAb PA10 to peptides. Also noted: species or system murine. Here is the method: (§1) In a competition ELISA, peptides were captured onto the plates as described above. Inhibitor or assay buffer was added for 1 h prior to addition of gp120JR-FL/CD4-IgG2 complex (1 nM) for an additional h at room temperature. The assay was then completed as described above. Direct binding of anti-CCR5 murine MAbs to the peptides was examined as described above except that MAb was substituted for gp120/CD4-IgG2 complex and a goat anti-mouse HRP-coupled antibody was used for detection.

The next assay concerns PA12. Nature of the assay: ELISA: direct binding of anti-CCR5 MAb PA12 to peptides. Also on record: species or system murine. Here is the method:
as §1
A general note: In an ELISA, binding on a coated surface is turned into a signal by an enzyme label.

Another assay relates to PA14. The assay can be described thus: ELISA: direct binding of anti-CCR5 MAb PA14 to peptides. Also noted: species or system murine. The procedure: as §1
The test system of a further assay is gp120DH123/CD4-IgG2. Nature of the assay: CCR5 Nt peptide ELISA with gp120DH123/CD4-IgG2. The settings on record: peptide 1 μg/ml on streptavidin plate. In kind it is binding, HIV-1.
In a further assay the test system is gp120JR-FL/CD4-IgG2. Nature of the assay: CCR5 Nt peptide ELISA with gp120JR-FL/CD4-IgG2. The settings on record: peptide 1 μg/ml on streptavidin plate. In kind it is binding, HIV-1.
The next assay deals with PA8. The assay can be described thus: ELISA: direct binding of anti-CCR5 MAb PA8 to peptides. Also on record: species or system murine. Here is the method:
as §1

The next assay has as its system PA11. Nature of the assay: ELISA: direct binding of anti-CCR5 MAb PA11 to peptides. Also noted: species or system murine. Here is the method:
as §1

The test system of assay [1] is V3 loop-deleted gp120JR-FL/CD4-IgG2. Nature of the assay: CCR5 Nt peptide ELISA with V3 loop-deleted gp120JR-FL/CD4-IgG2. In kind it is binding, HIV-1.
Procedure: (§2) Streptavidin-coated ELISA plates (Pierce, Rockford, Ill.) were blocked with D-PBS/5% BSA for 2 hours at room temperature then washed three times with assay buffer (D-PBS/0.5% Tween 20/1% Fetal Bovine Serum/2% BSA). Plates were then contacted with sulfo- or phospho-peptides (1 μg/ml) for 1 hour at room temperature and washed three times with assay buffer. […] The plates were developed using the TMB substrate as described above.
The subject of assay [2] is gp120JR-FL alanine mutants/CD4-IgG2. Nature of the assay: ELISA: binding of gp120JR-FL alanine mutant/CD4-IgG2 complexes to sulfopeptide 2-18. Also noted: species or system HIV-1. The procedure:
Mutant gp120 proteins were generated using the QuickChange Kit from Stratagene (San-Diego, Calif.). Gp120JR-FL, cloned into the pPPI4 expression vector [4], served as the template for site directed mutagenesis. Nucleotide sequencing was performed to ascertain the presence of the appropriate mutation in the gp120 coding sequence. 293T cells were calcium phosphate transfected with the different mutant gp120 expression constructs. Supernatants containing soluble gp120 proteins were harvested and cleared of debris by centrifugation 24 hours post-transfection. Quantification of gp120 was performed by ELISA as previously described). Briefly, 293T supernatants were boiled for 5 minutes and denatured gp120 was captured on an ELISA plate coated with D7324 (International Enzymes Inc. Fallbrook, Calif.), a MAb that recognizes a 15 residue linear epitope in the carboxy-terminal end of gp120. Captured gp120 was detected by a mixture of anti-gp120 MAbs B12 and B13 [40], followed by incubation with a horseradish peroxidase-conjugated (HRP) anti-mouse IgG antibody (Amersham Pharmacia, Piscataway, N.J.). Optical density (O.D.) was measured at 450 nm using the ImmunoPure TMB Substrate kit (Pierce, Rockford, Ill.).
CD4-IgG2 binding to non-denatured mutant gp120 proteins also was measured. Plates coated with D7324 were used to capture native gp120 from supernatants of transiently transfected 293T cells. CD4-IgG2 (50 nM) was added to the plates and its binding was detected using an HRP-conjugated goat anti-human IgG and TMB substrate as described above.

In the next assay the target is CD4-IgG2 (Homo sapiens, UniProt P01730+P01834+P01859). Nature of the assay: CCR5 Nt peptide ELISA with CD4-IgG2 alone. The format is binding.
The target of assay [3] is T1, gp120/CD4 binding to cell surface CCR5 (Homo sapiens, UniProt P51681).
T1 construct: Supernatants containing soluble gp120 proteins were harvested; made in house; host or cells: gp120: 293T supernatants; CCR5: L1.2-CCR5+ cells
The settings on record: cited from earlier work.

In assay [4] the target is T2, gp120JR-FL/CD4-IgG2 binding to the sulfopeptide 2-18 (Homo sapiens, UniProt P51681).
T2 construct: a peptide spanning CCR5 residues 2-18 and containing sulfotyrosines in positions 10 and 14; host or cells: peptide synthetic
The assay can be described thus: Competition ELISA: gp120JR-FL/CD4-IgG2 binding to sulfopeptide 2-18. Also on record: species or system HIV-1. To be noted: complex 1 nM, up to supraphysiologic concentrations. The procedure:
as §1

Where no end group is shown, it is not given here. [ ]: non-standard residue; d: D form. The star is where a group is joined. Biotin = O=C1N[C@H]2[C@H](CS[C@H]2CCCCC(=O)*)N1; sY = N[C@@H](Cc1ccc(OS(=O)(=O)O)cc1)C(=O)O; pY = N[C@@H](Cc1ccc(OP(=O)(O)O)cc1)C(=O)O

T1 sequence (P51681 whole entry): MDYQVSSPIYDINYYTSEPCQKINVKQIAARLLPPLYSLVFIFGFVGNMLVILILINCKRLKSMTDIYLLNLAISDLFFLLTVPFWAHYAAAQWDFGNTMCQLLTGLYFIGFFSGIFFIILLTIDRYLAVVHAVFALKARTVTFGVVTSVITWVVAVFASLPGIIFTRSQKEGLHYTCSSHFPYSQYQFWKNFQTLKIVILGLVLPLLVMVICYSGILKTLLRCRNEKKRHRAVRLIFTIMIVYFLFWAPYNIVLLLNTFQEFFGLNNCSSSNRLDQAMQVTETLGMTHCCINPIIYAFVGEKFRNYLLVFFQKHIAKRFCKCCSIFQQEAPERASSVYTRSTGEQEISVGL
Procedure for gp120DH123/CD4-IgG2: as §2

In the case of “2-18(P): analogous CCR5 Nt phosphopeptide, residues 2-18, phosphotyrosines in positions 10 and 14, GAG spacer, biotinylated lysine (DYQVSSPI[pY]DIN[pY]YTSEGAGK(Biotin))”, the “Binding of gp120LAI/CD4-IgG2 to peptide (ELISA)” value in the assay with gp120LAI/CD4-IgG2 is given as “No binding was observed”. Besides, the “Binding of PA10 to peptide (ELISA)” value in the assay on PA10 is recorded as “moderately”. The “Binding of PA12 to peptide (ELISA)” value in the assay on PA12 is “undetectable”. For the same compound, the “Binding of PA14 to peptide (ELISA)” value in the assay on PA14 is given as “does not recognize”. The “Binding of gp120DH123/CD4-IgG2 to peptide (ELISA)” value in the assay with gp120DH123/CD4-IgG2 is “No binding was observed”. The “Binding of gp120JR-FL/CD4-IgG2 to peptide (ELISA)” value in the assay with gp120JR-FL/CD4-IgG2 is on record as “No binding was observed”. The “Binding of PA8 to peptide (ELISA)” value in the assay on PA8 is “avidly binds”. Moreover, in the assay on PA11, the “Binding of PA11 to peptide (ELISA)” value is “weakly”.

For “2-18: peptide spanning CCR5 residues 2-18, sulfotyrosines in positions 10 and 14, carboxy terminal GAG spacer and biotinylated lysine (DYQVSSPI[sY]DIN[sY]YTSEGAGK(Biotin))”, the “Binding of gp120LAI/CD4-IgG2 to peptide (ELISA)” value with gp120LAI/CD4-IgG2 is reported as “did not measurably bind”. The “Binding of PA10 to peptide (ELISA)” value in the assay on PA10 is “binds avidly”. The “Binding of V3 loop-deleted gp120JR-FL/CD4-IgG2 to peptide (ELISA)” value in assay [1] is “did not measurably bind”. The “Binding of PA12 to peptide (ELISA)” value with PA12 was “weak”. Further, the “Binding of PA14 to peptide (ELISA)” value in the assay on PA14 is “does not recognize”. Moreover, the “Effect of V3 loop crown residues on gp120 binding to the sulfopeptide” value in assay [2] (alanine mutants in the crown of the V3 loop, including the GPGR motif) was “no effect”. The “Decrease of complex binding to the sulfopeptide by C4 alanine substitutions” value in assay [2] (alanine substitutions of R419, I420, K421, Q422 and R444) was 5-10 fold. Besides, the “Effect of alanine substitutions of R440 and R469 on complex binding” value in assay [2] (gp120 R440A, R469A) was “increased complex binding”. Besides, the “Decrease of complex binding to the peptide by V3 loop stem alanine mutants” value in [2] (gp120 alanine mutants R298, N301, T303, I322, D324, I325, R326, normalized for CD4-IgG2 binding) was over 10 fold. Further, the “Effect of alanine substitutions in other regions of gp120 on complex-peptide interactions” value in [2] (other regions of gp120) is given as “None of the alanine substitutions that we introduced in the other regions of gp120 significantly affected”. In addition, the “Binding of gp120JR-FL/CD4-IgG2 to peptide (ELISA)” value in the assay on gp120JR-FL/CD4-IgG2 is “strongest binding”. The “Binding of PA8 to peptide (ELISA)” value in the assay with PA8 is on record as “avidly binds”. Further, in the assay with CD4-IgG2, the “Binding of CD4-IgG2 alone to peptide (ELISA)” value is on record as “did not measurably bind”. For the same compound, the “Binding of PA11 to peptide (ELISA)” value in the assay on PA11 is recorded as “binds moderately”.

For `Cc1ccc(-c2ccc3c(c2)C=C(C(=O)Nc2ccc(C[N+](C)(C)C4CCOCC4)cc2)CCC3)cc1.[Cl-]` [TAK-779], in assay [3], the “Block of gp120/CD4 binding to CCR5” value is on record as “block”. Also, the “Inhibition of gp120JR-FL/CD4-IgG2 binding to the sulfopeptide 2-18” value in assay [4] is given as “not inhibited”.

These data come from patent US6908734B2, “Sulfated CCR5 peptides for HIV-1 infection” (priority 2000, dated 2005).
